Reference: US12509424B2, “Compound and composition as PDGF receptor kinase inhibitor” (NIPPON SHINYAKU CO., LTD., priority 2019, dated 2025)
Like-named read-outs stand apart in the source and are kept apart here.

Legend:
PDGFR-β = PDGFR-β (Homo sapiens (Human), UniProt P09619); experiment: PDGFR-β tyrosine kinase inhibitory action (HTRF KinEASE-TK); assay type: biochemical; conditions: PDGFR-β enzyme 1 ng/μL, 30° C. for 30 minutes; read-out: PDGF-β IC50
Summary of the method: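 Recombinant PDGFR-β at 1 ng/μL final with TK substrate-3-biotin in a substrate solution containing 0.6 μM ATP; buffer 50 mM HEPES pH 7.0, 5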

[1] = target: TEL-KIT fusion gene transfected cells (Ba/F3) (Homo sapiens, UniProt P10721); experiment: Suppression of proliferation of TEL-KIT fusion gene transfected Ba/F3 cells; conditions: read-out: KIT/BaF3 proliferation inhibition (IC50); TEL-KIT expressing Ba/F3 cells, 72 hours, final concentration 0.1 to 10,000 nM;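 also: viable cells quantified via formazan from tetrazolium reduction, inhibition scaled with 0.1% DMSO control as 0% and medium-only blank as 100%, IC50 from two-parameter logistic fit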
Source text: (§3) Fabrication of TEL-PDGFRβ and TEL-KIT Fusion Gene Transfected Cells
(§4) Subsequently, the vectors for gene transfection were introduced using a transfection reagent (FuGENE6, Promega Corporation) into packaging cells derived from a human fetal kidney cell line, PLAT-E, in the logarithmic growth phase. Since the culture supernatant of PLAT-E after the gene transfection contained virus particles for gene transfection, it was collected and used as a medium for gene transfection. The medium for gene transfection was added to a plate coated with RetroNectin and incubated, and the virus particles were allowed to adhere to the plate. Thereafter, the mouse pro-B cell line Ba/F3 in the logarithmic growth phase was seeded onto the plate and infected with the virus to fabricate cells that proliferate in a PDGFRβ or KIT dependent manner.
(§5) The test substance was prepared with dimethyl sulfoxide (DMSO) to 10 mM and diluted with DMSO so as to reach a concentration of 0.0001 to 3 mM. Furthermore, it was diluted by 100 times with distilled water.
(§6) Measurement of Suppression Action Against Proliferation of TEL-PDGFRβ or TEL-KIT Expressing Cells
(§7) The day after TEL-PDGFRβ and TEL-KIT expressing cells were seeded onto 96 well plates, the prepared test substance solution was added thereto with a final concentration being 0.1 to 10,000 nM. After 72 hours, the viable cell count was measured using the amount of formazan generated from the reduction of a tetrazolium salt compound by the mitochondrial dehydrogenase of viable cells as an indicator.
(§8) Based on the amount of formazan in each condition, the suppression rate against cell proliferation was calculated when the amounts of formazan in the negative control (0.1% DMSO solution) and Blank (medium only) were defined as 0% and 100%, respectively. Subsequently, a nonlinear regression analysis with a two parameter logistic model for the log dose and suppression rate against cell proliferation was carried out using the SAS system (SAS Institute Inc.) to estimate the IC50 value.

[2] = target: TEL-PDGFRβ fusion gene transfected cells (Ba/F3) (Homo sapiens, UniProt P09619); experiment: Suppression of proliferation of TEL-PDGFRβ fusion gene transfected Ba/F3 cells; assay type: cell-based; conditions: TEL-PDGFRβ expressing Ba/F3 cells, 72 hours, final concentration 0.1 to 10,000 nM; read-out: PDGFR β/BaF3 proliferation inhibition (IC50)
Source text: (§1) 2. Preparation of Test Substance
(§2) 4. Analysis of Measurement Results

[3] = tested on: pulmonary arterial smooth muscle cells; experiment: Suppression of proliferation of pulmonary arterial smooth muscle cells (PDGF-BB stimulation, BrdU); assay type: cell-based; conditions: healthy human derived pulmonary arterial smooth muscle cells, human PDGF-BB 10 ng/mL stimulation, BrdU uptake after 1 day, test substance final concentration 3 to 10,000 nM, read-out: Human normal PASMC proliferation suppression (PDGF stimulation_IC50)
Summary of the method: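 Test compound (final 3 to 10,000 nM) was added together with BrdU and PDGF-BB (final 10 ng/mL) to healthy human pulmonary artery smooth muscle cells held a day in 0.1% FBS. Proliferation was read after 1 day as anti-BrdU-detected BrdU incorporation.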

[4] = target: TEL-KIT fusion gene transfected cells (Ba/F3); experiment: Suppression of proliferation of TEL-KIT fusion gene transfected Ba/F3 cells; conditions: read-out: KIT/BaF3 proliferation inhibition (IC50); TEL-KIT expressing Ba/F3 cells, 72 hours, final concentration 0.1 to 10,000 nM;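 also: viable cells quantified via formazan from tetrazolium reduction, inhibition scaled with 0.1% DMSO control as 0% and medium-only blank as 100%, IC50 from two-parameter logistic fit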
Source text: as §3, §4, §5, §6, §7, §8

[5] = target: TEL-PDGFRβ fusion gene transfected cells (Ba/F3); experiment: Suppression of proliferation of TEL-PDGFRβ fusion gene transfected Ba/F3 cells; assay type: cell-based, human; conditions: TEL-PDGFRβ expressing Ba/F3 cells, 72 hours, final concentration 0.1 to 10,000 nM; read-out: PDGFR β/BaF3 proliferation inhibition (IC50)
Source text: as §1, §2

Sequence of PDGFR-β (P09619 33-1106): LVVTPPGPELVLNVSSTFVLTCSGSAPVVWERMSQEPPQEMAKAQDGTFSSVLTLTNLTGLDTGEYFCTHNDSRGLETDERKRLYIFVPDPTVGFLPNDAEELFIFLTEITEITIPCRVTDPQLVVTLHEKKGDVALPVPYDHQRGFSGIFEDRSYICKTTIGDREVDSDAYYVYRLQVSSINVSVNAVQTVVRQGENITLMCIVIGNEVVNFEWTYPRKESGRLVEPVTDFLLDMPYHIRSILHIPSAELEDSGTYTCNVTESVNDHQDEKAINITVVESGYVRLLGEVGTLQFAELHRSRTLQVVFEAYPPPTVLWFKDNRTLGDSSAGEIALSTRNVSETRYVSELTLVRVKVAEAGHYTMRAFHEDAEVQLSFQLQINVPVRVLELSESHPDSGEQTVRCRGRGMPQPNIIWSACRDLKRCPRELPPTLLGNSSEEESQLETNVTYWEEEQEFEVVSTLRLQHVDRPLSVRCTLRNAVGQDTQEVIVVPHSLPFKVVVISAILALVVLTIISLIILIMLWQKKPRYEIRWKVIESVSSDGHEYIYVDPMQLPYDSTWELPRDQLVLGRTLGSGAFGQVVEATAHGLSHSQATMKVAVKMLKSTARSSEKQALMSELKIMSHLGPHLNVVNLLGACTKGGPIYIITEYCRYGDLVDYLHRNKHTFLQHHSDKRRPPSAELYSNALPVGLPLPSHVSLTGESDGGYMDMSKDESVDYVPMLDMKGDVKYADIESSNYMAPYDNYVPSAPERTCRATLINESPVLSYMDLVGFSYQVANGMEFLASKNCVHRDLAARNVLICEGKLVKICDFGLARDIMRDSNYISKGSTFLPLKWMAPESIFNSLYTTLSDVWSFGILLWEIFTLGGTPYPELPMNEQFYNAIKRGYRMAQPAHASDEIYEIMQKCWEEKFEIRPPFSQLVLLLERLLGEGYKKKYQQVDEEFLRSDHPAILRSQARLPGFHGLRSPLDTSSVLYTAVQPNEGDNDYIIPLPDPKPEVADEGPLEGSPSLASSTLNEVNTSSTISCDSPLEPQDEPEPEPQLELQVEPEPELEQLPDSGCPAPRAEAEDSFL
Sequence of TEL-PDGFRβ fusion gene transfected cells (Ba/F3) (Homo sapiens, UniProt P09619) (P09619 33-1106 limits assumed, change not shown): as the sequence (P09619 33-1106) above
Sequence of TEL-KIT fusion gene transfected cells (Ba/F3) (Homo sapiens, UniProt P10721) (P10721 26-976 limits assumed, change not shown): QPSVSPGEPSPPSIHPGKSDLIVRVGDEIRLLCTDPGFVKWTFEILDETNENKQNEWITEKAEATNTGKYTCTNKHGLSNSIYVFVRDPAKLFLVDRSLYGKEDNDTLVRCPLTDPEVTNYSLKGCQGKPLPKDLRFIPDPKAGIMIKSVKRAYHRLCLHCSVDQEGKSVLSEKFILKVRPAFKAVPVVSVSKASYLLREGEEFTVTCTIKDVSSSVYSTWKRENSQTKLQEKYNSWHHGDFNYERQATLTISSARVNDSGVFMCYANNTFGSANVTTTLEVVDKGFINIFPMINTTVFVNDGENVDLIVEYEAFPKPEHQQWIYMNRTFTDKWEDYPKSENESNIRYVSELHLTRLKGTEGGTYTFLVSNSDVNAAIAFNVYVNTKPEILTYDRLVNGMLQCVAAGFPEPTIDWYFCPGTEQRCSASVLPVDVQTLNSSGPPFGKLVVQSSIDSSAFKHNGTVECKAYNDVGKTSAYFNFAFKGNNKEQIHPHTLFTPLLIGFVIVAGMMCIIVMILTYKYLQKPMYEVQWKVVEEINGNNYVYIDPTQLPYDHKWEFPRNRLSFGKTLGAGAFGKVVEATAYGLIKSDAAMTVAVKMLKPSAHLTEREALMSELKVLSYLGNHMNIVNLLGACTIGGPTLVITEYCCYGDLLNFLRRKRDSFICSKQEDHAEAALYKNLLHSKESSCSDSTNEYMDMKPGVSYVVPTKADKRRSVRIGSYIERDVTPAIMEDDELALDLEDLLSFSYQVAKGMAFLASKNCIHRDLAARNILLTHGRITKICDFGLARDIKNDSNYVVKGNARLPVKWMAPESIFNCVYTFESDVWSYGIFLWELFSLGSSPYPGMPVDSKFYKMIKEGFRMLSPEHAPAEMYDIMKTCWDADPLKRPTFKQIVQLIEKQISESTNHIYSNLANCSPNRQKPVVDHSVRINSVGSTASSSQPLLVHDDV
Sequence of TEL-KIT fusion gene transfected cells (Ba/F3) (P10721 26-976 limits assumed, change not shown): as above

Compound | IC50 (PDGFR-β) | IC50 [4] | IC50 [5] | IC50 [1] | IC50 [2] | IC50 [3] | IC50 ([3]; PASMC, 24 h)
3-{[([3,3′-bipyridin]-5-yl)methyl]amino}-N-[(1S,2S)-2-hydroxycyclohexyl]-4-methylbenzamide [Example 93] | 360 nM | – | – | 6200 nM | 45 nM | 260 nM | –
Cc1ccc(C(=O)N[C@H]2CCCC[C@@H]2O)cc1C#Cc1cncc(-c2ccccc2)c1 [Example 60, N-[(1S,2S)-2-hydroxycyclohexyl]-4-methyl-3-[(5-phenylpyridin-3-yl)ethynyl]benzamide] | 46 nM | – | – | 410 nM | 5.9 nM | – | 26 nM
Cc1ccc(C(=O)N[C@H]2CCCC[C@@H]2O)cc1C#Cc1cncc(-c2ccccc2)n1 [Example 75, N-[(1S,2S)-2-hydroxycyclohexyl]-4-methyl-3-[(6-phenylpyrazin-2-yl)ethynyl]benzamide] | 15 nM | – | – | 300 nM | 4.5 nM | – | 13 nM
Cc1ccc(C(=O)N[C@@H](CO)[C@@H](O)c2ccccc2)cc1CNc1cncc(Br)c1 [Example 152, 3-{[(5-bromopyridin-3-yl)amino]methyl}-N-[(1S,2S)-1,3-dihydroxy-1-phenylpropan-2-yl]-4-methylbenzamide] | 50 nM | > 10000 nM | 100 nM | – | – | – | 82 nM
Cc1ccc(C(=O)N[C@@H](CO)[C@@H](O)c2ccccc2)cc1CNc1cncc(-c2ccccc2)c1 [Example 153, N-[(1S,2S)-1,3-dihydroxy-1-phenylpropan-2-yl]-4-methyl-3-{[(5-phenylpyridin-3-yl)amino]methyl}benzamide] | 88 nM | 7000 nM | 27 nM | – | – | – | 62 nM
Cc1ccc(C(=O)N[C@@H](CO)[C@@H](O)c2ccccc2)cc1CNc1cncc(C2CC2)c1 [Example 154, 3-{[(5-cyclopropylpyridin-3-yl)amino]methyl}-N-[(1S,2S)-1,3-dihydroxy-1-phenylpropan-2-yl]-4-methylbenzamide] | 340 nM | > 10000 nM | 230 nM | – | – | – | 98 nM
Cc1ccc(CNc2cncc(-c3ncccn3)c2)cc1NC(=O)N[C@@H]1CCCC[C@@H]1O [Example 163, N-[(1R,2S)-2-hydroxycyclohexyl]-N′-[2-methyl-5-({[5-(pyrimidin-2-yl)pyridin-3-yl]amino}methyl)phenyl]urea] | 260 nM | – | 200 nM | 2600 nM | – | 150 nM | –
Cc1ccc(C(=O)N[C@H]2CCCC[C@@H]2O)cc1C(C)Nc1cncc(-c2ccccc2)n1 (stereo partly drawn) [Example 164, N-[(1S,2S)-2-hydroxycyclohexyl]-4-methyl-3-{1-[(6-phenylpyrazin-2-yl)amino]ethyl}benzamide] | 110 nM | 1400 nM | 180 nM | – | – | – | 110 nM
Cc1ccc(C(=O)N[C@H]2CCCC[C@@H]2O)cc1OCc1cncc(-c2cccnc2)c1 [Example 165, 3-[([3,3′-bipyridin]-5-yl)methoxy]-N-[(1S,2S)-2-hydroxycyclohexyl]-4-methylbenzamide] | 390 nM | 2900 nM | 9 nM | – | – | – | 46 nM
Cc1ccc(C(=O)N[C@H]2CCCC[C@@H]2O)cc1COc1cncc(-c2cccnc2)c1 [Example 168, 3-{[([3,3′-bipyridin]-5-yl)oxy]methyl}-N-[(1S,2S)-2-hydroxycyclohexyl]-4-methylbenzamide] | 350 nM | 4100 nM | 18 nM | – | – | – | 110 nM
Cc1ccc(C(=O)N[C@H]2CCCC[C@@H]2O)cc1COc1cncc(-c2ncccn2)c1 [Example 169, N-[(1S,2S)-2-hydroxycyclohexyl]-4-methyl-3-({[5-(pyrimidin-2-yl)pyridin-3-yl]oxy}methyl)benzamide] | 52 nM | 400 nM | 4 nM | – | – | – | 43 nM
Cc1ccc(C(=O)N[C@H]2CCCC[C@@H]2O)cc1/C=C/c1cncc(-c2ccccc2)c1 [Example 173, N-[(1S,2S)-2-hydroxycyclohexyl]-4-methyl-3-[(E)-2-(5-phenylpyridin-3-yl)ethenyl]benzamide] | 54 nM | – | – | 700 nM | 4.6 nM | – | –

Continued by falling IC50 (PDGFR-β), values first:

IC50 (PDGFR-β) | IC50 [4] | IC50 [5] | Compound | IC50 [1] | IC50 [2] | IC50 [3] | IC50 ([3]; PASMC, 24 h)
49 nM | 1200 nM | 2.5 nM | Cc1ccc(C(=O)N[C@H]2CCCC[C@@H]2O)cc1OCc1cncc(-c2ncccn2)c1 [Example 166, N-[(1S,2S)-2-hydroxycyclohexyl]-4-methyl-3-{[5-(pyrimidin-2-yl)pyridin-3-yl]methoxy}benzamide] | – | – | – | 65 nM
46 nM | 1200 nM | 5.9 nM | O=C(Nc1cc(CNc2cncc(-c3ncccn3)c2)ccc1F)N[C@@H]1CCCC[C@@H]1O [Example 160, N-[2-fluoro-5-({[5-(pyrimidin-2-yl)pyridin-3-yl]amino}methyl)phenyl]-N′-[(1R,2S)-2-hydroxycyclohexyl]urea] | – | – | – | 44 nM
36 nM | 10000 nM | 69 nM | Cc1ccc(C(=O)N[C@@H](CO)[C@@H](O)c2ccccc2)cc1CNc1cncc(-c2ccccn2)c1 [Example 155, 3-{[([2,3′-bipyridin]-5′-yl)amino]methyl}-N-[(1S,2S)-1,3-dihydroxy-1-phenylpropan-2-yl]-4-methylbenzamide] | – | – | – | 160 nM
26 nM | 3000 nM | 41 nM | COc1ccc(-c2cncc(NCc3cccc(NC(=O)N[C@@H]4CCCC[C@@H]4O)c3)n2)cc1OC [Example 158, N-[3-({[6-(3,4-dimethoxyphenyl)pyrazin-2-yl]amino}methyl)phenyl]-N′-[(1R,2S)-2-hydroxycyclohexyl]urea] | – | – | – | 22 nM
26 nM | 380 nM | 1.7 nM | O=C(Nc1cccc(CNc2cncc(-c3ncccn3)c2)c1)N[C@@H]1CCCC[C@@H]1O [Example 159, N-[(1R,2S)-2-hydroxycyclohexyl]-N′-[3-({[5-(pyrimidin-2-yl)pyridin-3-yl]amino}methyl)phenyl]urea] | – | – | – | 21 nM
25 nM | > 10000 nM | 22 nM | Cc1ccc(C(=O)N[C@@H](CO)[C@@H](O)c2ccccc2)cc1CNc1cncc(-c2ccccc2)n1 [Example 156, N-[(1S,2S)-1,3-dihydroxy-1-phenylpropan-2-yl]-4-methyl-3-{[(6-phenylpyrazin-2-yl)amino]methyl}benzamide] | – | – | – | 79 nM
16 nM | > 10000 nM | 4.8 nM | O=C(Nc1ccc(F)c(CNc2cncc(-c3ncccn3)c2)c1)N[C@@H]1CCCC[C@@H]1O [Example 161, N-[4-fluoro-3-({[5-(pyrimidin-2-yl)pyridin-3-yl]amino}methyl)phenyl]-N′-[(1R,2S)-2-hydroxycyclohexyl]urea] | – | – | – | 110 nM
2.6 nM | 270 nM | 1.1 nM | Cc1ccc(NC(=O)N[C@@H]2CCCC[C@@H]2O)cc1CNc1cncc(-c2ncccn2)c1 [Example 162, N-[(1R,2S)-2-hydroxycyclohexyl]-N′-[4-methyl-3-({[5-(pyrimidin-2-yl)pyridin-3-yl]amino}methyl)phenyl]urea] | – | – | – | 36 nM
